Broadly, the koff is a measure of how fast the partners let go of each other. In general, kon refers to a measure of how fast the partners come together. The CC50 is the concentration giving 50% cytotoxicity. Lower therefore signals harm at low concentration. In general, inhibition refers to the change of the read-out against control, counted positive when it falls.

One data set has as its target human ACE2 protein (Homo sapiens, UniProt Q9BYF1). Put plainly: SPR affinity screen, compounds over immobilized ACE2-His (CM5 chip). The format is binding.
Data set [1] deals with T1, SARS-CoV-2 spike S-RBD protein (Severe acute respiratory syndrome coronavirus 2, UniProt P0DTC2).
T1 construct: the S-RBD-mFc protein and ACE2-His protein were immobilized on a CM5 sensor chip; purchased Sino Biological (Beijing, China) 40592-V05H
Put plainly: biochemical. The format is binding.

The next data set deals with ACE2-S-RBD interaction (Severe acute respiratory syndrome coronavirus 2, UniProt P0DTC2). The format is binding.
In a further data set the test system is 293T-hACE2 cells. Put plainly: Cytotoxicity in 293T-hACE2 cells (PrestoBlue / CCK). The protocol:
(§1) First, cytotoxicity of 02B05 and 03D12 in 293T-hACE2 cells was assayed using PrestoBlue cell viability reagent. Briefly, the cells were seeded into 96-well plates and treated with different concentrations of compounds (a three-fold concentration series from 0.12 to 30 μM for 02B05 and 0.12 to 3.3 μM for 03D12). After incubation at 37 °C for 24 h, 10 μL PrestoBlue (10×) was added to each well and mixed well with the medium. After incubation at 37 °C for another 1 h, the fluorescent signals were read at an excitation wavelength of 560 nm and an emission wavelength of 590 nm, using the EnSpire multimode plate reader (Perkin Elmer, Waltham, MA, USA).

Data set [2] has as its system SARS-CoV-2 pseudovirus in 293T-hACE2 cells. The experiment in a line: Pseudovirus entry assay (luciferase), SARS-CoV-2 pseudovirus. It is filed as cell-based.
For a further data set, the target named is T2, S-RBD-His protein (Severe acute respiratory syndrome coronavirus 2, UniProt P0DTC2).
T2 construct: spike S-RBD protein with His tag (26.6 kDa)
The experiment in a line: Isothermal titration calorimetry (ITC) of compound with S-RBD-His. The format is binding, SARS-CoV-2. The settings on record: 25 °C, read-out: affinity measured by ITC. In general terms: ITC needs no label: the signal is the heat of the interaction.

Data set [3] can be described thus: Cytotoxicity in 293T-hACE2 cells (PrestoBlue / CCK). The settings on record: human, 293T-hACE2 cells. The protocol:
as §1

The subject of data set [4] is VSV pseudovirus in 293T-hACE2 cells. The format is cell-based, vesicular stomatitis virus.

SMILES strings stand for the structures. Read-outs that look alike come from different tables or passages of the source.

Chain of human ACE2 protein (Q9BYF1 18-740 limits assumed): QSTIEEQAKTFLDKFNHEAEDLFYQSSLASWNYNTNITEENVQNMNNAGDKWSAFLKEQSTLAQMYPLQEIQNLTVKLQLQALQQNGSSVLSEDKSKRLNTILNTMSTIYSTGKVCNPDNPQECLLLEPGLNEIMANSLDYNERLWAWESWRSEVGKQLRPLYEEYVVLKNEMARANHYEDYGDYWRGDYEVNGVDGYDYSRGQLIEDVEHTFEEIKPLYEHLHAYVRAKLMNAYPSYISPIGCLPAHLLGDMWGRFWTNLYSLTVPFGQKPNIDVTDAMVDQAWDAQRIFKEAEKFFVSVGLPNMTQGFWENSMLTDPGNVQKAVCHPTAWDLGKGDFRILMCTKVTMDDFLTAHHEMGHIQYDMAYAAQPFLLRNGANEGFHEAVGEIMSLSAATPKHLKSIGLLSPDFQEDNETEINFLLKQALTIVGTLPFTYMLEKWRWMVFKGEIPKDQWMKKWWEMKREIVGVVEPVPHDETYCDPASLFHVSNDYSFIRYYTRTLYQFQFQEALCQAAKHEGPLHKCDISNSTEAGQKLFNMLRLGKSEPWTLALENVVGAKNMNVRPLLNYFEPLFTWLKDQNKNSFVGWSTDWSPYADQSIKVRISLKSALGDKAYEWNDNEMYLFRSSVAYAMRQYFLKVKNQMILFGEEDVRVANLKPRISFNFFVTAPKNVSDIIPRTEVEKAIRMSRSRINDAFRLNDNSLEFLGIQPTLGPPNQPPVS

For the compound `COc1cc2c(Oc3ccc4[nH]c(C)cc4c3F)ncnc2cc1OCCCN1CCCC1` [03D12], the Kd on human ACE2 protein is 3.43 µM; in data set [1] it was 4.59 µM. Besides, the koff at human ACE2 protein (read-out: koff) came to 0.00948 s⁻¹; in data set [1] it was 0.00964 s⁻¹. Besides, the figures for the kon (on human ACE2 protein (read-out: kon); in data set [1]) were 2760 M⁻¹ s⁻¹ and 2100 M⁻¹ s⁻¹, respectively. For the same compound, on ACE2-S-RBD interaction, the “blocking effect on binding of S-RBD to ACE2 (competitive inhibition)” value is “effective in blocking ACE2-S-RBD interaction”. Moreover, the cytotoxicity entry in the data set with 293T-hACE2 cells (concentration as high as 3.3 μM) is “not obvious”. In addition, the “inhibitory activity in pseudovirus entry assay” value in data set [2] (any concentration tested (0.12 to 3.3 μM)) is “did not exhibit significant inhibitory activity”; in data set [2] (at 3.3 μM) it was “no obvious”.
Turning to `C[C@@]1(C(=O)O)CC[C@]2(C)CC[C@]3(C)C4=CC(=O)c5c(cc(O)c(O)c5C=O)[C@]4(C)CC[C@@]3(C)[C@@H]2C1` [02B05, demethylzeylasteral], at human ACE2 protein, the Kd turned out to be 1.74 µM, the koff is 0.00335 s⁻¹ and the association rate constant (kon) stood at 1990 M⁻¹ s⁻¹. In data set [1], this compound returned a Kd of 1.04 µM, a koff of 0.00244 s⁻¹ and a kon of 2350 M⁻¹ s⁻¹. At S-RBD-His protein, the Kd came out at 2.09 µM. Moreover, the “blocking effect on binding of S-RBD to ACE2 (competitive inhibition)” value on ACE2-S-RBD interaction is listed as “strongest blocking effect”. Besides, it took 7.67 ± 0.79 µM to reach half-maximal cytotoxicity in data set [3] (CC50 at 24 h). For the same compound, in the data set with 293T-hACE2 cells (at 0.37 μM), the “cell viability and cell morphology” value is reported as “no changes were observed”. Moreover, the cell morphology result with 293T-hACE2 cells (at 1.1 μM) is listed as “affected”. For the same compound, the “effect on the activity (viability) of 293T-hACE2 cells” value in the data set on 293T-hACE2 cells (concentration no more than 1.1 μM, CCK and PrestoBlue) is “no significant effect”. Further, in data set [2] (Severe acute respiratory syndrome-related coronavirus, 0.37 μM, 293T-hACE2 cells, 24 h post infection, read-out: inhibition of transduction of SARS-CoV-2 pseudovirus), the inhibition at 0.37 µM is about 7%. Also, the “effect on the transduction of VSV pseudovirus” value in data set [4] was “no effect”.
In the case of `CC(C)c1cc(C(C)C)c(CC(=O)NS(=O)(=O)Oc2ccccc2)c(C(C)C)c1` [02C19], on human ACE2 protein (read-out: koff), the dissociation rate constant (koff) was found to be 0.052 s⁻¹. Also, the kon at human ACE2 protein (read-out: kon) amounted to 2340 M⁻¹ s⁻¹. At human ACE2 protein (target ACE2, SPR, 1:1 binding model for kinetics), the Kd came to 22.2 µM.
As for `Cl.N` [ammonium chloride, reference compound], in data set [2] (positive control, 20 mM, 293T-hACE2 cells), the “infection by SARS-CoV-2 pseudovirus” value is given as “almost abolished”. Further, the “infection by VSV pseudovirus” value in data set [4] is given as “almost abolished”.
Turning to `Nc1nc(Nc2ccc3c(c2)CC[C@@H](N2CCCC2)CC3)nn1-c1cc2c(nn1)-c1ccccc1CCC2` [02J06], the Kd on human ACE2 protein worked out at 243 µM; in data set [1] it was 64.2 µM. The koff amounted to 0.636 s⁻¹ on human ACE2 protein (read-out: koff) and 0.329 s⁻¹ in data set [1]. Further, the kon is 2610 M⁻¹ s⁻¹ at human ACE2 protein (read-out: kon) and 5120 M⁻¹ s⁻¹ in data set [1].
In data set [1], `C=CC(=O)Nc1cc(Nc2nccc(-c3c[nH]c4ccccc34)n2)c(OC)cc1N(C)CCN(C)C` [02C15] had a Kd of 9.11 µM, a koff of 0.0215 s⁻¹ and a kon of 2360 M⁻¹ s⁻¹.

For the origin of these results see publication PMC7794844 (Molecules, 2020).
